Measured values taken from patent publication US9675616B2, “Arylaminoalcohol-substituted 2,3-dihydroimidazo[1,2-C]quinolines” (BAYER INTELLECTUAL PROPERTY GMBH, priority 2010, dated 2017).

Experiments:
[1] = target: PI3Kα (complex of human p110α and human p85α) (Homo sapiens (Human), UniProt P42336); assay: PI3Kα kinase assay (HTRF-based PI3K inhibition assay); details: 10 μM ATP, 10 μM PIP2; average value; read-out: average IC50 in the PI3K alpha biochemical assay
Text: Determination of % Inhibition and IC50 Values of Compounds in PI3Kα Kinase Assay
PI3Kα inhibitory activity of compounds of the present invention was quantified employing the HTRF-based PI3K inhibition assay as described below.
(§1) Chemicals and Assay Materials
(§2) As reagents for the kinase reaction itself and the quantification of the reaction product, the PI3-Kinase HTRF Assay kit from Millipore (#33-017) was used. With this kit the phosphatidylinositol 3,4,5-trisphosphate (PIP3) generated in the kinase reaction is detected by displacement of a biotinylated ligand from an energy transfer complex consisting of a Europium-labeled anti-GST monoclonal antibody, a GST-tagged PH domain, biotinylated PIP3 and Streptavidin-Allophycocyanin (APC).
The amount of PI3Kα was chosen to have the enzyme reaction in the linear range and depended on the activity of the individual lot, typical concentrations in assay were in the range of 90 ng/mL. […]
The reaction was stopped by the addition of 1 μL of an stop solution (containing the biotinylated PIP3 used as a tracer), then 1 μL detection mix (containing a Europium-labeled anti-GST monoclonal antibody, a GST-tagged PH domain, and Streptavidin-Allophycocyanin) was added and resulting mixture was incubated 3 h at 22° C. to allow the formation of complexes between the detection reagents and either the PIP3 generated in the kinase reaction, or the biotinylated PIP3 added with the stop solution. Subsequently, the amount of energy transfer complex consisting of a Europium-labeled anti-GST monoclonal antibody, a GST-tagged PH domain, biotinylated PIP3 and Streptavidin-Allophycocyanin (APC) was evaluated by measurement of the resonance energy transfer from the Europium-labeled anti-GST monoclonal antibody to the Streptavidin-Allophycocyanin. Therefore, the fluorescence emissions at 620 nm and 665 nm after excitation at 350 nm were measured using a TR-FRET reader, e.g., a Pherastar (BMG Labtechnologies, Offenburg, Germany) or a Viewlux (Perkin-Elmer). […]

[2] = target: PI3Kβ (complex of human p110β and human p85α) (Homo sapiens (Human), UniProt P42338); assay: PI3Kβ kinase assay (HTRF based PI3K inhibition assay); assay type: biochemical; details: for IC50: 10 μM ATP, 10 μM PIP2, average value, read-out: average IC50 in the PI3K beta biochemical assay; for PI3K beta average IC50/PI3K alpha average IC50: ratio of beta IC50 to alpha IC50 (isoform balance)
Sequence of PI3Kβ (complex of human p110β and human p85α) (P42338 whole entry, canonical isoform): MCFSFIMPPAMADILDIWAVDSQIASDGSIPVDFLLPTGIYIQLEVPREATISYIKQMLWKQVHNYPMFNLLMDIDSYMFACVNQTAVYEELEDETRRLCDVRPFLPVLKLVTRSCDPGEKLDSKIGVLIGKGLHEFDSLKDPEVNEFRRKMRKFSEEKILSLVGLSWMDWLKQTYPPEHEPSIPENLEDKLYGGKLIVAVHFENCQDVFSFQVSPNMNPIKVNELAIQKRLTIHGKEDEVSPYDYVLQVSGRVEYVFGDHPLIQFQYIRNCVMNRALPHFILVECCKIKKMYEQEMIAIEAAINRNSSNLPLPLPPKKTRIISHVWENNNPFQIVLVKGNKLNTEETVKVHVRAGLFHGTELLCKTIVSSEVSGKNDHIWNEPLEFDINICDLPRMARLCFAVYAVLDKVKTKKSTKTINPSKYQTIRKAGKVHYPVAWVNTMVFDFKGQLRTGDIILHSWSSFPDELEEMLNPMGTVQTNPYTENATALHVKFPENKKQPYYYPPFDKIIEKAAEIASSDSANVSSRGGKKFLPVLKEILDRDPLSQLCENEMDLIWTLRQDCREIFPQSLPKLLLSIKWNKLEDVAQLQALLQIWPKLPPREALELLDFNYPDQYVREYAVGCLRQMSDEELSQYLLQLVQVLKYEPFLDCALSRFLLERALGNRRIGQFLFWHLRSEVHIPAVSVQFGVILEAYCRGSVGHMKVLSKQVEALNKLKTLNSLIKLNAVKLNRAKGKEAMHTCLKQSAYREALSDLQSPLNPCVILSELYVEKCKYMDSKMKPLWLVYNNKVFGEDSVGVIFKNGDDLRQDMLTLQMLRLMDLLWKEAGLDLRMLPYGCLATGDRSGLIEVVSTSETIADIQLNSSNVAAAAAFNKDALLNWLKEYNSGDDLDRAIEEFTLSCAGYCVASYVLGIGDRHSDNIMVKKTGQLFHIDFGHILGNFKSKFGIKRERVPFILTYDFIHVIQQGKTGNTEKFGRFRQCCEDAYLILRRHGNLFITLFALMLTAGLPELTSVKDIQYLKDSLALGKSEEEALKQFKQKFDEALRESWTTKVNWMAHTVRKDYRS
Sequence of PI3Kβ (complex of human p110β and human p85α) (P27986 whole entry partner, canonical isoform): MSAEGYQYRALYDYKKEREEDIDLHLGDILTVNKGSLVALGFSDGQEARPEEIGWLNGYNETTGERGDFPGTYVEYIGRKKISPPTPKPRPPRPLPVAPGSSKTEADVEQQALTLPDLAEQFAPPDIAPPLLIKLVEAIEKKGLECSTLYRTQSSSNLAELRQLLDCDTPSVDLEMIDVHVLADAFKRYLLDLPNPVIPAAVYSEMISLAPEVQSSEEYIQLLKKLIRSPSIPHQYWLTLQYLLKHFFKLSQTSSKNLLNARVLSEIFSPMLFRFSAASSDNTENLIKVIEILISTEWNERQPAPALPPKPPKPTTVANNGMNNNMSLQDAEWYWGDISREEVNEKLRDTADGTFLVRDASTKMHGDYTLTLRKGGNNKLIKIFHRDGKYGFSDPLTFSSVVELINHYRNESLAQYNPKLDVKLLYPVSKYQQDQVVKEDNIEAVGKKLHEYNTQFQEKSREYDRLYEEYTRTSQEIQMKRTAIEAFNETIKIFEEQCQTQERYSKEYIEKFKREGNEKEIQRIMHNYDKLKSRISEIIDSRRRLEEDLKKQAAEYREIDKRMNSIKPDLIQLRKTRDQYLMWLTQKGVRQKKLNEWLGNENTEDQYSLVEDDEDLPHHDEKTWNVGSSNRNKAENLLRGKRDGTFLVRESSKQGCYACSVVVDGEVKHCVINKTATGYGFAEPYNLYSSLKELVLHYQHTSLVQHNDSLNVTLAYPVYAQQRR
Text: Determination of % Inhibition and IC50 Values of Compounds in PI3Kβ Kinase Assay
PI3Kβ inhibitory activity of compounds of the present invention was quantified employing the HTRF based PI3K inhibition assay as described below.
as §1, §2
For the assay 50 nL of a 80-fold concentrated solution of the test compound in DMSO was pipetted into a black low volume 384-well microtiter plate (Greiner Bio-One, Frickenhausen, Germany), 3 μl of a solution of PI3Kβ and phosphatidylinositol-4,5-bisphosphate (PIP2, 13.8 μM=>final conc. in 4 μl reaction volume=10 μM) in 1× reaction buffer (exact composition not disclosed by the vendor) were added and the mixture was incubated for 15 min at 22° C. to allow pre-binding of the test compounds to the enzyme before the start of the kinase reaction. The amount of PI3Kβ was chosen to have the enzyme reaction in the linear range and depended on the activity of the individual lot, typical concentrations in assay were in the range of 120 ng/mL. Then the kinase reaction was started by the addition of 1 μL of a solution of adenosine triphosphate (ATP, 40 μM=>final conc. in the 4 μl assay volume is 10 μM) in reaction buffer and the resulting mixture was incubated for a reaction time of 20 min at 22° C.
The reaction was stopped by the addition of 1 μL of an stop solution (containing the biotinylated PIP3 used as a tracer). Then 1 μL detection mix (containing a Europium-labeled anti-GST monoclonal antibody, a GST-tagged PH domain, and Streptavidin-Allophycocyanin) was added and resulting mixture was incubated for 3 h at 22° C. to allow the formation of complexes between the detection reagents and either the PIP3 generated in the kinase reaction, or the biotinylated PIP3 added with the stop solution. Subsequently the amount of energy transfer complex consisting of a Europium-labeled anti-GST monoclonal antibody, a GST-tagged PH domain, biotinylated PIP3 and Streptavidin-Allophycocyanin (APC) was evaluated by measurement of the resonance energy transfer from the Europium-labeled anti-GST monoclonal antibody to the Streptavidin-Allophycocyanin. Therefore, the fluorescence emissions at 620 nm and 665 nm after excitation at 350 nm were measured using a TR-FRET reader, e.g., a Pherastar (BMG Labtechnologies, Offenburg, Germany) or a Viewlux (Perkin-Elmer). The ratio of the emissions at 665 nm and at […] were taken as the measure for the amount of biotinylated PIP3 bound to the GST-tagged PH domain, which is negatively correlated with the amount of PIP3 generated.

Sequence of PI3Kα (complex of human p110α and human p85α) (P42336 whole entry): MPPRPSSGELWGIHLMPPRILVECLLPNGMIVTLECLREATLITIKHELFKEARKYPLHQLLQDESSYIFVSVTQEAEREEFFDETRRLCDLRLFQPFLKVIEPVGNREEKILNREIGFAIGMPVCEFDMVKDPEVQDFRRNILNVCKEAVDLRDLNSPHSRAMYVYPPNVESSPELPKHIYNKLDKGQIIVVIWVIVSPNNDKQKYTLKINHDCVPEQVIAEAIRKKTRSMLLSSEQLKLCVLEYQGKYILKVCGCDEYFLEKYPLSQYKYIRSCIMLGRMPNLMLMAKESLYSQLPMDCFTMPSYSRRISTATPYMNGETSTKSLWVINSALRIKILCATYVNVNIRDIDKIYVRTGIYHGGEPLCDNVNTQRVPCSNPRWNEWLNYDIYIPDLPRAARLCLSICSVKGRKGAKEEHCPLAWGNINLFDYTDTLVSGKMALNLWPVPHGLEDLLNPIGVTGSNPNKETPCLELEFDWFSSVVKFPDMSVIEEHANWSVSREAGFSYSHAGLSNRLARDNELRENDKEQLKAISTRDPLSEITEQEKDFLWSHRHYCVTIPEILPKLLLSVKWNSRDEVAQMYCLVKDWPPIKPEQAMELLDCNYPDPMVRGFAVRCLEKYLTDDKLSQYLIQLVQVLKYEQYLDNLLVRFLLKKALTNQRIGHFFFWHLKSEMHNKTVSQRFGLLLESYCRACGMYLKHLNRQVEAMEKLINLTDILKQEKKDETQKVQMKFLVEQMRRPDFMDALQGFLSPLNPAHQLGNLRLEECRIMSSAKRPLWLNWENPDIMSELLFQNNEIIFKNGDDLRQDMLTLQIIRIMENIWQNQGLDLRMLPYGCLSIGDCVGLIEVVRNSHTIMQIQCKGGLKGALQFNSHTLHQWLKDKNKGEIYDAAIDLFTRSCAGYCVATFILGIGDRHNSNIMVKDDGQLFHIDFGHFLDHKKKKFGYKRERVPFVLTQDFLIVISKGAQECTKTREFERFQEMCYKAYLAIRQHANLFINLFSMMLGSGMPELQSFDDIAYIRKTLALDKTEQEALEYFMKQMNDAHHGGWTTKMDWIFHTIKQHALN
Sequence of PI3Kα (complex of human p110α and human p85α) (P27986 whole entry partner): as the sequence (P27986 whole entry partner, canonical isoform) above

Compound | IC50 [1] [µM] | IC50 [2] [µM] | PI3K beta average IC50/PI3K alpha average IC50 [2]
COc1c(OC[C@@H](O)CN[C@@H](C)c2ccccc2)ccc2c1N=C(NC(=O)c1cnc(N)nc1)N1CCN=C21 (relative stereo) [Example 5, rel-2-Amino-N-(8-{[(2R)-2-hydroxy-3-{[(1R)-1-phenylethyl]amino}propyl]oxy}-7-methoxy-2,3-dihydroimidazo[1,2-c]quinazolin-5-yl)pyrimidine-5-carboxamide] | < 0.01 | < 0.01 | 5.40
COc1c(OC[C@@H](O)CN[C@@H](C)c2ccccc2)ccc2c1N=C(NC(=O)c1cnc(N)nc1)N1CCN=C21 [Example 6, 2-Amino-N-(8-{[(2S)-2-hydroxy-3-{[(1S)-1-phenylethyl]amino}propyl]oxy}-7-methoxy-2,3-dihydroimidazo[1,2-c]quinazolin-5-yl)pyrimidine-5-carboxamide] | < 0.01 | < 0.01 | 7.01
COc1c(OC[C@H](O)CN[C@@H](C)c2ccccc2)ccc2c1N=C(NC(=O)c1cnc(N)nc1)N1CCN=C21 [Example 7, 2-Amino-N-(8-{[(2R)-2-hydroxy-3-{[(1S)-1-phenylethyl]amino}propyl]oxy}-7-methoxy-2,3-dihydroimidazo[1,2-c]quinazolin-5-yl)pyrimidine-5-carboxamide] | < 0.01 | < 0.01 | 3.44
